This note sets out measurements from PubChem BioAssay (NCI).

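Step 1: Grow cells in 96-well plates. Step 2: Expose to compound for 48 hours at 5 concentrations. Step 3: Interpolate endpoints linearly; if unreached, use highest concentration. GI50 = concentration required for 50% inhibition of growth. TGI marks complete inhibition of growth.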

Holding throughout (experiment): NCI tumour cell line growth inhibition, 48 h
In assay [1] the test system is UACC-62 melanoma.
In assay [2] the test system is A549 NSCLC.
Assay [3] has as its system HCT-116 colon.
Assay [4] deals with NCI-H226 lung.
Assay [5] relates to HT29 colon.
The subject of assay [6] is CCRF-CEM leukemia.
For assay [7], the system named is HOP-92 NSCLC.
For assay [8], the system named is CAKI-1 renal.
Assay [9] deals with SK-MEL-28 melanoma.
Assay [10] concerns IGROV1 ovarian.
For assay [11], the system named is SNB-19 CNS.
Assay [12] relates to MDA-N.

Take `O=C(NC(=O)c1cn(CCN2CCNCC2)c(=O)[nH]c1=O)OCc1ccccc1`: the TGI in assay [1], in assay [2], in assay [3], in assay [4], in [5] and in assay [6] was over 100 µM each time. Besides, the TGI in assay [7] and in [8] was over 100 µM throughout.

`CN(C)C(=S)Nc1nnc(NC23CC4CC(CC(C4)C2)C3)s1`: the TGI came to 31.3 µM in [9]; 32.6 µM in [1]; 36.5 µM in assay [2]; 33 µM in assay [3]; 72.8 µM in assay [10]; 38.4 µM in [4]. The TGI in assay [11] was 41.2 µM; in [5], 19.2 µM; in assay [6] it was 84.9 µM; in [8], 68.8 µM.

In the case of `CC1=NN(c2nc(N)nc(CS(C)(=O)=O)n2)C(C)(C)C1`, the TGI in [9], in assay [1], in assay [3], in assay [10], in assay [11] and in assay [5] was over 100 µM in each case. For the same molecule, the TGI in [6], in assay [7] and in assay [8] was over 100 µM throughout.

Consider `Nc1[nH]c(=O)nc2sc3c(c12)CCCC3`, for which the TGI in assay [9] was over 100 µM; in assay [1], over 100 µM; in assay [2], over 100 µM; in [3], over 100 µM; in assay [10], over 100 µM; in assay [4] it was 88.8 µM. The TGI in assay [11], in assay [5], in [6] and in [7] was over 100 µM each time.

For `CSCCC(NC(=O)C(Cc1ccccc1)NC(=O)CNC(=O)CNC(=O)C(N)Cc1ccc(O)cc1)C(=O)O` (configuration not stated), the TGI in assay [9], in assay [1], in [2], in assay [3], in [10] and in assay [11] was over 100 µM throughout. In addition, the TGI in assay [5], in assay [6], in [7] and in [8] was over 100 µM in each case.

`CN(C)c1cccc(-c2cc(=O)c3ccccc3[nH]2)c1`: the TGI in assay [9] is over 100 µM; in assay [1], over 100 µM; in assay [2], over 100 µM; in assay [3], over 100 µM; in [10] it was over 100 µM; in [4] it was 66.9 µM. In addition, the TGI in assay [11], in assay [5] and in assay [6] was over 100 µM throughout. The GI50 was 58.6 µM in [3] and 29.4 µM in assay [4].

As for `C=CCn1c2ccccc2c2c(C)c3cnccc3c(C)c21`, the TGI in assay [9] is over 125 µM; in [1], 41.2 µM; in assay [2], over 97.6 µM; in assay [3], 46.9 µM; in assay [10] it was 95.3 µM; in [4], 40.3 µM. The TGI is over 78.2 µM in assay [11]; 124 µM in assay [5]; 24.5 µM in [6]; 29.8 µM in assay [7]; 6.75 µM in assay [8].

For `COC1/C=C\C=C(/C)C(=O)NC2=CC(=O)C=C(C2=O)C(OC)C(C)CC(OC)C(OC)C(C)/C=C(/C)C1OC(N)=O` (configuration not stated), the TGI came out at 19.8 µM in [9]; 15.7 µM in [1]; 32.4 µM in [2]; 10.3 µM in assay [3]; 26 µM in assay [10]; 37 µM in assay [4]. The TGI turned out to be 30.7 µM in assay [11]; 12.1 µM in assay [5]; 1.85 µM in assay [6]; 4.52 µM in assay [7]; 26.3 µM in assay [8].

Regarding `C#CCNC(=O)CCC(N)C(=O)O` (configuration not stated), the TGI in assay [9], in assay [1], in assay [2], in assay [3], in assay [10] and in assay [4] was over 100 µM throughout. Moreover, the TGI in assay [11], in [5], in [6], in assay [7] and in assay [8] was over 100 µM throughout.

Consider `ON=C1CCCCC(=NO)CCCC1`, for which the TGI in assay [9], in assay [1], in [2], in assay [3], in assay [12] and in assay [4] was over 100 µM throughout. For the same molecule, the TGI in [11], in assay [5], in assay [7] and in assay [8] was over 100 µM in each case.

As for `CCCS(=O)(=O)O`, the TGI in [9], in assay [1], in assay [2], in [10], in [4] and in [11] was over 100 µM throughout. Further, the TGI in assay [5], in assay [6], in assay [7] and in assay [8] was over 100 µM in each case.

As for `CC(C)(O)[C@@H]1CCC(C)([C@H]2[C@@H](O)CC3(C)C4CC(OC5OC(CO)C(O)C(O)C5O)C5C(C)(C)[C@@H](OC6OCC(O)C(O)C6O)CC[C@@]56C[C@@]46CC[C@]23C)O1` (some centres not stated), the TGI in assay [9], in assay [1], in [2], in assay [3], in assay [10] and in [4] was over 100 µM throughout. The TGI in assay [11], in assay [5], in assay [6] and in assay [7] was over 100 µM in each case.

Take `CSc1ccc2c(c1)c(CCN)c(C)n2Cc1ccc(Cl)c(Cl)c1`: the GI50 was 1.67 µM in assay [9], 1.49 µM in assay [5], 1.4 µM in assay [7] and 1.82 µM in assay [8]. The TGI in assay [9] stood at 3.17 µM; in assay [5] it was 2.92 µM; in [7], 2.78 µM; in assay [8], 3.85 µM.

`OC1CN(OC/C=C/c2ccccc2)CC(O)C1O` (configuration not stated): the TGI in assay [9], in [1], in assay [2], in [3], in [10] and in assay [4] was over 100 µM each time. Besides, the TGI in [11], in assay [5], in assay [6], in [7] and in assay [8] was over 100 µM each time.

Regarding `CN(C)c1nc(N(C)C)nc(N(C)CN(C)c2ccccc2)n1`, the TGI in assay [9], in [1], in [2], in [3], in assay [10] and in [4] was over 100 µM in each case. Moreover, the TGI in [11], in [5] and in assay [6] was over 100 µM each time.

As for `COc1ccc2c(=O)c([Se]c3coc4cc(OC)ccc4c3=O)coc2c1`, the TGI in [9] was over 100 µM; in assay [1], over 100 µM; in assay [2] it was over 100 µM; in assay [3] it was 44.1 µM; in assay [10], over 100 µM; in [4] it was over 100 µM. Moreover, the TGI in assay [11], in assay [5], in assay [6], in assay [7] and in assay [8] was over 100 µM each time.

For `CC(=O)OC1C=CC2CCN3C(=O)c4cc5c(cc4[C@H]1C23)OCO5` (some centres not stated), the TGI in [9], in assay [1], in assay [2], in [3], in assay [10] and in [4] was over 100 µM in each case. Also, the TGI in assay [11], in assay [5] and in assay [6] was over 100 µM in each case.

Turning to `CC(/C=C/c1ncccc1OCCCCCC(=O)O)=N\NC1=NCCN1`, the TGI in [9], in assay [1], in assay [2], in [3], in [10] and in assay [4] was over 100 µM each time. In addition, the TGI in assay [11], in [5], in assay [6], in assay [7] and in assay [8] was over 100 µM each time.

`O=C1CCc2c3c(c4c([nH]c5ccccc54)c2CC1)C(=O)NC3=O`: the TGI in assay [9] was 12 µM; in assay [1] it was 42.8 µM; in assay [2] it was over 100 µM; in assay [3], over 100 µM; in [10], 13.7 µM; in assay [4], 23.7 µM. For the same molecule, the TGI in [11] is 44.4 µM; in [5] it was 12.1 µM; in [6], over 100 µM; in [7] it was 82 µM; in assay [8], 21.2 µM.

In the case of `C=C1c2nc3ccccc3n2C=C(c2ccc(Cl)cc2)N1c1ccc(OCCN2CCOCC2)cc1`, the TGI in assay [9] was over 100 µM; in [1] it was 99.6 µM; in assay [2], over 100 µM; in assay [3], over 100 µM; in assay [12], over 100 µM; in assay [10], over 100 µM. For the same molecule, the TGI in assay [4], in assay [11], in assay [5] and in assay [7] was over 100 µM in each case.

Turning to `NCCCNCCSSCc1ccccc1CSSCCNCCCN`, the TGI was over 100 µM in assay [9]; over 100 µM in [1]; over 100 µM in assay [2]; over 100 µM in assay [10]; over 100 µM in assay [11]; 27.4 µM in [5]. For the same molecule, the results for the TGI in [6], in assay [7] and in assay [8] were 29.8 µM, 87.9 µM and over 100 µM, respectively.

Turning to `CCN(CC)CCN1C(=O)c2cccc3c(-c4ccc5c(c4)ncn5C4CCCCC4)ccc(c23)C1=O`, the GI50 in [9] is 1.63 µM; in [1] it was 1.56 µM; in [6] it was 1.43 µM; in assay [7], 0.372 µM; in [8] it was 1.71 µM. Besides, the TGI in [9] turned out to be 3.1 µM; in assay [1] it was 3.03 µM; in [6] it was 11.6 µM; in assay [7] it was 1.65 µM; in assay [8], 5.45 µM.

Turning to `Cc1ccc2nc3c(C(=O)NCCN(C)C)cccc3cc2c1`, the TGI was 6.67 µM in [9]; 6.77 µM in assay [1]; 4 µM in assay [2]; 6.71 µM in [3]; 6.5 µM in assay [10]; 3.6 µM in assay [4]. For the same molecule, the TGI in [11] worked out at 6.34 µM; in assay [5] it was 4.79 µM; in [6], 5.28 µM; in assay [7] it was 5.08 µM.

For `COCCO`, the TGI in assay [9], in assay [1], in assay [2], in assay [3], in [10] and in assay [4] was over 100 µM in each case. Moreover, the TGI in assay [11], in assay [5], in assay [7] and in assay [8] was over 100 µM each time.

In the case of `COc1cc2cc3c4c(cc(OC)c(OC)c4c2cc1OC)CCN3C(=O)CCCC(=O)O`, the TGI in [9], in assay [1], in assay [2], in assay [3], in assay [10] and in [4] was over 100 µM throughout. The TGI in assay [11], in [5], in assay [6], in assay [7] and in [8] was over 100 µM throughout.

For the molecule `CCCCCCc1nn2c(-c3ccc(C)cc3)nnc2s1`, the TGI in [9], in [1], in assay [2], in assay [3], in assay [12] and in [11] was over 100 µM throughout. In addition, the TGI in [5] and in [8] was over 100 µM in each case.

Take `O=C1CCCCC/C=C2/CC[C@H](Sc3ccccc3)[C@@H]12`: the TGI in assay [9], in assay [1], in assay [2], in assay [3], in assay [4] and in assay [11] was over 100 µM throughout. In addition, the TGI in assay [5] and in assay [6] was over 100 µM each time.
